Experimental data: patent publication US9029393B2, “Adenosine receptor ligands and uses thereof” (Kaldi Pharma, SAS, priority 2009, dated 2015)

What was measured:
[1] = molecular target: human A2A receptor (Homo sapiens, UniProt P29274); experiment: A2A-antagonist Ca++ functional assay (CGS21680 at EC80); assay type: cell-based; conditions: HEK cells expressing GFP-hA2A and Gα15, inhibition of CGS21680 (EC80)-induced Ca2+ increase
Description: Assay protocol: HEK cells stably expressing the human A2A receptor fused at its amino terminal domain to GFP, and cultured in Modified Eagle's Medium supplemented with 10% FCS, were transiently transfected by electroporation with plasmid DNA encoding the promiscuous G protein Gα15 in order to deviate the natural coupling of the receptor from AMPc production to calcium (Ca^2+) release pathway (Brabet et al., Neuropharmacology 37:1043-1051, 1998). Receptor activity was detected by changes in intracellular Ca^2+, measured using the fluorescent Ca^2+ sensitive dye, Fluo4AM (Molecular Probes®).
Cells were plated after transfection onto polyornithine coated, clear bottom, black-walled, 96-well plates and cultured for 24 hours. The day of the test, cells were washed with freshly prepared buffer B (HBSS 1×, Hepes 20 mM, MgSO4.7H2O 1 mM, Na2CO3 3.3 mM, CaCl2-2H2O 1.3 mM, 0.5% BSA, Probenecid 2.5 mM) and loaded at 37° C. in 5% CO2 for 1.5 hours with buffer B containing 1 μM Fluo4AM and 0.1 mg/mL Pluronic Acid. Afterwards cells were washed twice with buffer B and 50 μL of this buffer were added to each well. The tested compounds were incubated […] before addition of CGS21680 (used as reference agonist) at a concentration leading to 80% of its maximal activity (EC80). Afterwards, the intracellular Ca^2+ measurements were performed on a 60s kinetic by detection of the fluorescence intensity (excitation 485 nm, emission 525 nm) using the fluorescence microplate reader FlexStation® (Molecular Devices®). All data reflect three independent experiments. Dose-response curves were fitted by using the sigmoidal dose-response (variable slope) analyze in GraphPad Prism® program (San Diego) and IC50 of antagonist compound was calculated. Dose-response experiments were all performed in triplicate, three times independently.

[2] = test system: haloperidol-induced catalepsy; experiment: Haloperidol-induced catalepsy model in the mouse (bar test); assay type: in vivo
[3] = molecular target: hA2A receptor (Homo sapiens (Human), UniProt P29274); experiment: A2A FRET-based binding assay; conditions: HEK GFP-A2A stable cell line, dyed CGS15943-derived probe
hA2A receptor, sequence (P29274 whole entry, the tested form may be a part): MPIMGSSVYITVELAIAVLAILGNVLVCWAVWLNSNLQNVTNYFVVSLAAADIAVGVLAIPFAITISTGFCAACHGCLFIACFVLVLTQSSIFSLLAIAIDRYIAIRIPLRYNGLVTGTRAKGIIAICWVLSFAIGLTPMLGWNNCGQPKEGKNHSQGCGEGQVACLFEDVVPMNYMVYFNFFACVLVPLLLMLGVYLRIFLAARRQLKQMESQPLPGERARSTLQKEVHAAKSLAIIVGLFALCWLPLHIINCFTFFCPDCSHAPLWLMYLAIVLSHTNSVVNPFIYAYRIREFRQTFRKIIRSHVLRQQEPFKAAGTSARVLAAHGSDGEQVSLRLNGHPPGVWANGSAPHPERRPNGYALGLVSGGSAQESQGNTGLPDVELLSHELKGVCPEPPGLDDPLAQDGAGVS
Procedure: Assay protocol: Compounds were evaluated on an in-vitro binding assay developed based on the technology described in the patent WO 98/55873. This assay was developed from hA2A receptor that was fused at its amino terminal domain to Green Fluorescent Protein (GFP) and stably expressed in HEK cells. The probe used is a dyed ligand derived from the non-selective CGS15943. For the FRET-binding experiment, HEK GFP-A2A stable cell line was seeded onto poly-D-lysine precoated black-walled 96-well plates in normal growth media (0.7 10^5 cells per well). After 24 hours of culture at 37° C., the cell media was removed and cells were washed. The tested compounds were applied on cells by the FLIPR^TETRA® (Molecular Devices®) and incubated for 10 minutes prior to addition of the dyed probe. When a drug interacts with the receptor, the FRET signal measured by the variation of GFP fluorescence at 510 nm is disrupted. The time curves of ligand binding were recorded during 1000 seconds. (excitation Light Emitting Diode 470-495 nm, emission 510+/−10 nm). The percentage of inhibition allows the evaluation of the inhibitory activity of compounds in comparison to the antagonist A2A reference CGS15943. The dose-inhibition curves were fitted with variable slope, using GraphPad® Prism software, in order to determine […] and Ki values. The dose-inhibition experiments were all performed in duplicate, three times independently.

SMILES	IC50 [1]	melting point	Ki [3]	anti-cataleptic effect ([2]; 1 mg/kg i.p. 120 minutes after haloperidol, FIG. 1)	anti-cataleptic effect ([2]; 30 mg/kg i.p. 120 minutes after haloperidol, FIG. 1)	anti-cataleptic effect ([2]; 1, 3, 30 and 100 mg/kg i.p. 120 minutes after haloperidol (1 mg/kg i.p.), FIG. 1)	anti-cataleptic effect ([2]; 10 and 30 mg/kg per os 120 minutes after haloperidol, FIG. 2)
O=C(c1ccc(C(=O)N2CCCCCC2)cc1)c1cnc2ccc(F)cn12 [Example 14, [4-(Azepane-1-carbonyl)-phenyl]-(6-fluoro-imidazo[1,2-a]pyridin-3-yl)-methanone]	195 ± 100 nM	165 to 169 °C	12 ± 6 nM	no anticataleptic activity	the most important catalepsy reversion	significant anti-cataleptic effect in a dose-dependent manner	significant anti-cataleptic effect in a dose-dependent manner
O=C(c1ccc2c(c1)nnn2-c1cnc2ccc(F)cn12)N1CCCCCC1 [Example 132, 5-(Azepan-1-ylcarbonyl)-1-(6-fluoroimidazo[1,2-a]pyridin-3-yl)-1H-1,2,3-benzotriazole]	326 ± 47 nM	160 to 166 °C	72 ± 10 nM				

The remaining compounds from weak to strong by IC50 [1], led by results:

IC50 [1]	melting point	Ki [3]	SMILES	anti-cataleptic effect ([2]; 1 mg/kg i.p. 120 minutes after haloperidol, FIG. 1)	anti-cataleptic effect ([2]; 30 mg/kg i.p. 120 minutes after haloperidol, FIG. 1)	anti-cataleptic effect ([2]; 1, 3, 30 and 100 mg/kg i.p. 120 minutes after haloperidol (1 mg/kg i.p.), FIG. 1)	anti-cataleptic effect ([2]; 10 and 30 mg/kg per os 120 minutes after haloperidol, FIG. 2)
1830 ± 122 nM	169 to 175 °C	171 ± 70 nM	O=C(c1ccc(C(=O)N2CCCc3ccccc32)cc1)c1cnc2ccccn12 [Example 71, [4-(3,4-Dihydro-2H-quinoline-1-carbonyl)-phenyl]-imidazo[1,2-a]pyridin-3-yl-methanone]				
992 ± 11 nM	141 to 152 °C	103 ± 52 nM	Nc1cc(C(=O)N2CCCCCC2)ccc1C(=O)c1cnc2ccc(F)cn12 [Example 30, [2-Amino-4-(azepane-1-carbonyl)-phenyl]-(6-fluoro-imidazo[1,2-a]pyridin-3-yl)-methanone]				
46 ± 3 nM	218 to 219 °C	4 ± 1 nM	O=C(c1ccc2c(-c3cnc4ccc(F)cn34)noc2c1)N1CCCCCC1 [Example 113, Azepan-1-yl-[3-(6-fluoro-imidazo[1,2-a]pyridin-3-yl)-benzo[d]isoxazol-6-yl]-methanone]				
